The record followed here is ChEMBL document CHEMBL4342422, “Synthetic strategy and SAR studies of C-glucoside heteroaryls as SGLT2 inhibitor: A review” (Eur J Med Chem, 2019).

The Tmax is the time at which the peak concentration occurs.

The subject of data set [1] is Homo sapiens. The data set is described as follows: Antidiabetic activity in human T2DM patients assessed as reduction in body weight at 10 to 25 mg, po. It is filed as functional.
For data set [2], the system named is Homo sapiens. The data set is described as follows: Antidiabetic activity in human T2DM patients assessed as reduction in HbA1c level at 10 mg, po relative to control. It is filed as functional. Also noted: scale not given: the % may be the effect or the level left.
Data set [3] deals with Homo sapiens. Put plainly: Antidiabetic activity in human T2DM patients assessed as reduction in HbA1c level at 25 mg, po relative to control. It is filed as functional. The arrangement: scale not given: the % may be the effect or the level left.
A short description of data set [4]: Toxicity in human T2DM patients assessed as reduction in systolic blood pressure at 25 mg, po. Particulars: in vivo.
The nature of data set [5]: Toxicity in human T2DM patients assessed as reduction in diastolic blood pressure at 25 mg, po. To be noted: in vivo.
The nature of data set [6]: Half life in human. It is filed as ADME.
Data set [7] can be described thus: Tmax in human at 5 mg, po. It is filed as ADME. Particulars: in vivo.
Data set [8] can be described thus: Toxicity in human T2DM patients assessed as reduction in systolic blood pressure at 10 mg, po for 4 weeks. Particulars: in vivo, 672 h. It is filed as organism-based.
Data set [9] deals with Homo sapiens. The data set is described as follows: Antidiabetic activity in human T2DM patients assessed as reduction in HbA1c level at 25 mg, po for 12 weeks relative to control. It is filed as functional. The arrangement: scale not given: the % may be the effect or the level left.
Data set [10] in a line: Toxicity in human T2DM patients assessed as reduction in systolic blood pressure at 5 mg, po for 4 weeks. To be noted: in vivo, 672 h. It is filed as organism-based.
For data set [11], the system named is Homo sapiens. The data set is described as follows: Antidiabetic activity in human T2DM patients assessed as reduction in HbA1c level at 50 mg, po for 24 weeks relative to control. It is filed as functional. Also noted: scale not given: the % may be the effect or the level left.
For data set [12], the system named is Homo sapiens. Put plainly: Antidiabetic activity in human T2DM patients assessed as reduction in body weight at 50 mg, po for 24 weeks. It is filed as functional.
Data set [13] relates to Homo sapiens. The data set is described as follows: Antidiabetic activity in human T2DM patients assessed as fasting blood glucose level at 50 mg, po for 24 weeks. It is filed as functional.
Data set [14] in a line: Elimination half life in human at 1 to 25 mg, po. It is filed as ADME. Particulars: in vivo, read-out: LambdaZ.
Data set [15] can be described thus: Toxicity in human assessed as urinary tract infection at 200 to 400 mg, po for 52 weeks. Particulars: in vivo, 8736 h. It is filed as organism-based.
For data set [16], the system named is Homo sapiens. The data set is described as follows: Antidiabetic activity in human T2DM patients assessed as reduction in body weight at 20 mg, po for 24 weeks. It is filed as functional.
Data set [17] is described as follows: Toxicity in human T2DM patients assessed as reduction in blood pressure at 20 mg, po for 24 weeks. Particulars: in vivo, 4032 h. It is filed as organism-based.
The subject of data set [18] is Homo sapiens. The data set is described as follows: Antidiabetic activity in human T2DM patients assessed as reduction in HbA1c level at 20 mg, po for 24 weeks relative to control. It is filed as functional. The arrangement: scale not given: the % may be the effect or the level left.

For the molecule `OC[C@H]1O[C@@H](c2ccc(Cl)c(Cc3ccc(O[C@@H]4CCOC4)cc3)c2)[C@H](O)[C@@H](O)[C@@H]1O`, the Activity in data set [1] was 1.85 kg; in data set [2], 0.929%; in [3] it was 1.064%; in data set [4], 4.19 mmHg; in [5], -1.04 mmHg. Also, the half-life in data set [6] was 1 h.

As for `CCOc1ccc(Cc2cc([C@]34OC[C@](CO)(O3)[C@@H](O)[C@H](O)[C@H]4O)ccc2Cl)cc1` [ERTUGLIFLOZIN], in [7], the Tmax was 1 h. The Activity in [8] is 2.59 to 2.86 mmHg; in data set [9] it was -0.72%; in data set [10], 2.59 to 2.86 mmHg.

For the molecule `OC[C@H]1O[C@@H](c2ccc(F)c(Cc3cc4ccccc4s3)c2)[C@H](O)[C@@H](O)[C@@H]1O` [IPRAGLIFLOZIN], the Activity in data set [11] stood at 0.79%; in [12] it was 1.1 kg; in data set [13], 32.89 mg/dL.

As for `CCOc1ccc(Cc2cc([C@@H]3S[C@H](CO)[C@@H](O)[C@H](O)[C@H]3O)c(OC)cc2C)cc1` [LUSEOGLIFLOZIN], in [14], the half-life lay within 9.2 to 13.8 h.

In the case of `CCOc1ccc(Cc2cc([C@@H]3O[C@H](SC)[C@@H](O)[C@H](O)[C@H]3O)ccc2Cl)cc1` [SOTAGLIFLOZIN], in data set [15], the Activity was in the range of 4.2 to 6.9%.

Turning to `CCc1ccc(Cc2ccc3c(c2)[C@]2(OC3)O[C@H](CO)[C@@H](O)[C@H](O)[C@H]2O)cc1` [TOFOGLIFLOZIN ANHYDROUS], the Activity in data set [16] was determined as 2.9 kg; in [17], 2.1 mmHg; in [18] it was 1.017%.
